This is an account of results in patent US20060252807A1, “Novel ortho-terphenyl inhibitors of p38 kinase and methods of treating inflammatory disorders” (Kalypsys, Inc., priority 2005, published 2006).

Bounds are passed on as bounds.

The target in the assay is T1, active p38 alpha enzyme (Upstate Biotechnology) (Homo sapiens, UniProt Q16539).
T1 construct: purchased Upstate Biotechnology
T1 sequence (Q16539 whole entry): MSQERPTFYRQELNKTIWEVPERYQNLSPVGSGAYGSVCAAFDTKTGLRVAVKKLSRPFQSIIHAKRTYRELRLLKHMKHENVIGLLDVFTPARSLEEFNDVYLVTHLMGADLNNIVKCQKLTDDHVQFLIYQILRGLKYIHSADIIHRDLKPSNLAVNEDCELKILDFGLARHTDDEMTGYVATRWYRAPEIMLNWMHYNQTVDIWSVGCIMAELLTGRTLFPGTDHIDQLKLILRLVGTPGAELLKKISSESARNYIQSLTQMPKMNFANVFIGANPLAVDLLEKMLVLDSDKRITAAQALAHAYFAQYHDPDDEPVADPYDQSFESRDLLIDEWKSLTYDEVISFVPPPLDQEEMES
Briefly: p38α biochemical assay (ATP turnover, luminescent detection, Cambrex PKlight). The conditions noted are these: p38α kinase; Table 1 Biological Activity. In short, it runs like this: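 Luminescent ATP-depletion readout measures total ATP turnover by p38α phosphorylating whole MapkapK2 protein. ATP 1.4 uM final; 30C, 2 h. Compounds delivered from DMSO.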
What is called IC50 is the concentration needed to halve the response being measured. A lower IC50 goes with inhibition by little substance. Regarding `C=CCN(Cc1onc(-c2ccc(F)cc2)c1-c1nc(C(=O)NC(C)C)cs1)C1CCCCC1` [Example 1556], the half-maximal inhibitory concentration (IC50) was above 1 µM.
Turning to `COC(=O)C1CCN(Cc2onc(-c3ccc(F)cc3)c2-c2nc(C(=O)NC(C)C)cs2)CC1` [Example 1557], the IC50 is above 1 µM.
As to `CC(C)NC(=O)c1csc(-c2c(-c3ccc(F)cc3)noc2CN(Cc2ccccc2)C(C)C)n1` [Example 1558], the half-maximal inhibitory concentration (IC50) was above 1 µM.
To `CC(C)NC(=O)c1csc(-c2c(-c3ccc(F)cc3)noc2CN(CCO)Cc2ccccc2)n1` [Example 1559] belongs above 1 µM; to `CC(C)NC(=O)c1csc(-c2c(-c3ccc(F)cc3)noc2CN(C)CC(O)c2ccccc2)n1` (stereo not drawn) [Example 1560], above 1 µM; to `CC(C)NC(=O)c1csc(-c2c(-c3ccc(F)cc3)noc2CN2CCC(O)(O)CC2)n1` [Example 1561], above 1 µM.
`CCOC(=O)C1CCN(Cc2onc(-c3ccc(F)cc3)c2-c2nc(C(=O)NC(C)C)cs2)CC1` [Example 1562] returned a half-inhibitory concentration (IC50) above 1 µM.
In turn, `CCOC(=O)C1CCCN(Cc2onc(-c3ccc(F)cc3)c2-c2nc(C(=O)NC(C)C)cs2)C1` (stereo not drawn) [Example 1563] had an IC50 above 1 µM.
Compound `CCOC(=O)N1CCN(Cc2onc(-c3ccc(F)cc3)c2-c2nc(C(=O)NC(C)C)cs2)CC1` [Example 1564] had an IC50 above 1 µM.
As for `CC(C)NC(=O)c1csc(-c2c(-c3ccc(F)cc3)noc2CN(CCC#N)Cc2cccnc2)n1` [Example 1566], the IC50 was above 1 µM.
As for `CC(C)NC(=O)c1csc(-c2c(-c3ccc(F)cc3)noc2CN2CCN(c3ccccc3)CC2)n1` [Example 1567], the IC50 is above 1 µM.
The compound `CC(C)NC(=O)c1csc(-c2c(-c3ccc(F)cc3)noc2CN2CCN(c3ccccn3)CC2)n1` [Example 1568] returned a half-inhibitory concentration (IC50) above 1 µM.
With `CCCCN(Cc1ccccc1)Cc1onc(-c2ccc(F)cc2)c1-c1nc(C(=O)NC(C)C)cs1` [Example 1569], the half-maximal inhibitory concentration (IC50) was above 1 µM.
In turn, `CC(C)NC(=O)c1csc(-c2c(-c3ccc(F)cc3)noc2CN(CCO)[C@H](C)c2ccccc2)n1` [Example 1570] had an IC50 above 1 µM.
The compound `CC(C)NC(=O)c1csc(-c2c(-c3ccc(F)cc3)noc2CN(CCCO)Cc2ccccn2)n1` [Example 1571] displayed a 50% inhibitory concentration (IC50) above 1 µM.
The compound `CC(C)NC(=O)c1csc(-c2c(-c3ccc(F)cc3)noc2CN(C)CC(O)c2ccc(O)cc2)n1` (stereo not drawn) [Example 1572] yielded an IC50 above 1 µM.
In turn, `CC(C)NC(=O)c1csc(-c2c(-c3ccc(F)cc3)noc2CN2CCN(C3CCCCC3)CC2)n1` [Example 1573] yielded a half-maximal inhibitory concentration (IC50) above 1 µM.
The same measure for `CC(C)NC(=O)c1csc(-c2c(-c3ccc(F)cc3)noc2CN2CCC(Cc3ccccc3)CC2)n1` [Example 1574]: above 1 µM.
As for `CC(C)NC(=O)c1csc(-c2c(-c3ccc(F)cc3)noc2CN2CCN(Cc3ccccc3)CC2)n1` [Example 1575], the half-maximal inhibitory concentration (IC50) was above 1 µM.
`CC(C)NC(=O)c1csc(-c2c(-c3ccc(F)cc3)noc2CN2CCCN(Cc3ccccc3)CC2)n1` [Example 1576] came in with a half-maximal inhibitory concentration (IC50) above 1 µM.
The compound `CC(C)NC(=O)c1csc(-c2c(-c3ccc(F)cc3)noc2CN2CCN(c3ccc(O)cc3)CC2)n1` [Example 1577] displayed an IC50 above 1 µM.
`CC(C)NC(=O)c1csc(-c2c(-c3ccc(F)cc3)noc2CN(CCN(C)C)Cc2ccccc2)n1` [Example 1578] came in with a half-maximal inhibitory concentration (IC50) above 1 µM.
Turning to `CC(C)NC(=O)c1csc(-c2c(-c3ccc(F)cc3)noc2CN2CCN(c3ccccc3F)CC2)n1` [Example 1579], the IC50 was above 1 µM.
`CC(C)NC(=O)C1=CSC(c2c(-c3ccc(F)cc3)noc2CN2CCN(c3ccc(F)cc3)CC2)=NC1` [Example 1580]: the IC50 is above 1 µM.
`CC(C)NC(=O)c1csc(-c2c(-c3ccc(F)cc3)noc2CN2CCN(CC3CCCCC3)CC2)n1` [Example 1581] displayed an IC50 above 1 µM.
`CC(C)NC(=O)c1csc(-c2c(-c3ccc(F)cc3)noc2CN(C)C[C@H](O)c2ccc(O)c(O)c2)n1` [Example 1582] showed an IC50 above 1 µM.
Consider `CCOC(=O)CC1C(=O)NCCN1Cc1onc(-c2ccc(F)cc2)c1-c1nc(C(=O)NC(C)C)cs1` (stereo not drawn) [Example 1583], for which the 50% inhibitory concentration (IC50) was above 1 µM.
With `CC(C)NC(=O)c1csc(-c2c(-c3ccc(F)cc3)noc2CN2CCN(C(=O)OC(C)(C)C)CC2)n1` [Example 1584], the IC50 is above 1 µM.
`CC(C)NC(=O)c1csc(-c2c(-c3ccc(F)cc3)noc2CN2CCC(NC(=O)OC(C)(C)C)C2)n1` (stereo not drawn) [Example 1585] showed an IC50 above 1 µM.
Take `CC(C)NC(=O)c1csc(-c2c(-c3ccc(F)cc3)noc2CN2CCN(c3ccccc3C#N)CC2)n1` [Example 1586]: the IC50 is above 1 µM.
For the compound `CC(C)NC(=O)c1csc(-c2c(-c3ccc(F)cc3)noc2CN2CCN(c3ccc(C#N)cn3)CC2)n1` [Example 1587], the IC50 is above 1 µM.
Compound `Cc1cccc(N2CCN(Cc3onc(-c4ccc(F)cc4)c3-c3nc(C(=O)NC(C)C)cs3)CC2)c1C` [Example 1588] had a half-maximal inhibitory concentration (IC50) above 1 µM.
`Cc1cccc(N2CCN(Cc3onc(-c4ccc(F)cc4)c3-c3nc(C(=O)NC(C)C)cs3)CC2C)c1` (stereo not drawn) [Example 1590] returned an IC50 above 1 µM.
`CC(C)NC(=O)c1csc(-c2c(-c3ccc(F)cc3)noc2CN2CCN(CCc3ccccc3)CC2)n1` [Example 1591] had an IC50 above 1 µM.
`Cc1ccc(N2CCN(Cc3onc(-c4ccc(F)cc4)c3-c3nc(C(=O)NC(C)C)cs3)CC2)cc1C` [Example 1592] gave an IC50 above 1 µM.
Compound `Cc1ccc(N2CCN(Cc3onc(-c4ccc(F)cc4)c3-c3nc(C(=O)NC(C)C)cs3)CC2)c(C)c1` [Example 1593] came in with a half-inhibitory concentration (IC50) above 1 µM.
For the compound `Cc1ccc(C)c(N2CCN(Cc3onc(-c4ccc(F)cc4)c3-c3nc(C(=O)NC(C)C)cs3)CC2)c1` [Example 1594], the concentration for half-maximal inhibition (IC50) is above 1 µM.
To `COc1ccc(N2CCN(Cc3onc(-c4ccc(F)cc4)c3-c3nc(C(=O)NC(C)C)cs3)CC2)cc1` [Example 1595] belongs above 1 µM.
`COc1ccccc1N1CCN(Cc2onc(-c3ccc(F)cc3)c2-c2nc(C(=O)NC(C)C)cs2)CC1` [Example 1596]: the IC50 is above 1 µM.
To `COc1cccc(N2CCN(Cc3onc(-c4ccc(F)cc4)c3-c3nc(C(=O)NC(C)C)cs3)CC2)c1` [Example 1597] belongs above 1 µM; to `COc1ccc(CCN(C)Cc2onc(-c3ccc(F)cc3)c2-c2nc(C(=O)NC(C)C)cs2)cc1OC` [Example 1598], above 1 µM; to `CC(C)NC(=O)c1csc(-c2c(-c3ccc(F)cc3)noc2CN2CCN(c3cccc(Cl)c3)CC2)n1` [Example 1599], above 1 µM.
In turn, `CC(C)NC(=O)c1csc(-c2c(-c3ccc(F)cc3)noc2CN2CCN(c3ccc(Cl)cc3)CC2)n1` [Example 1600] returned an IC50 above 1 µM.
Consider `CC(C)NC(=O)c1csc(-c2c(-c3ccc(F)cc3)noc2CN2CCN(c3ccc(F)cc3F)CC2)n1` [Example 1602], for which the 50% inhibitory concentration (IC50) was above 1 µM.
`CC(C)NC(=O)c1csc(-c2c(-c3ccc(F)cc3)noc2CN(Cc2cccnc2)Cc2cccnc2)n1` [Example 1603] came in with an IC50 above 1 µM.
For the compound `CC(C)NC(=O)c1csc(-c2c(-c3ccc(F)cc3)noc2CN2CCN(CCN3CCOCC3)CC2)n1` [Example 1604], the IC50 is above 1 µM.
Regarding `CC(C)NC(=O)c1csc(-c2c(-c3ccc(F)cc3)noc2CN2CCC(N(C)C(=O)OC(C)(C)C)C2)n1` (stereo not drawn) [Example 1605], the concentration for half-maximal inhibition (IC50) is above 1 µM.
`CC(=O)c1ccc(N2CCN(Cc3onc(-c4ccc(F)cc4)c3-c3nc(C(=O)NC(C)C)cs3)CC2)cc1` [Example 1606] showed an IC50 above 1 µM.
With `CCN(CC)CCN(Cc1ccccc1)Cc1onc(-c2ccc(F)cc2)c1-c1nc(C(=O)NC(C)C)cs1` [Example 1607], the IC50 is above 1 µM.
Turning to `CC(C)NC(=O)c1csc(-c2c(-c3ccc(F)cc3)noc2CN2CCN(c3ccc([N+](=O)[O-])cc3)CC2)n1` [Example 1608], the IC50 was above 1 µM.
The compound `CC(C)NC(=O)c1csc(-c2c(-c3ccc(F)cc3)noc2CN(C)Cc2cccc3ccccc23)n1` [Example 1609] had an IC50 above 1 µM.
For `Cc1ccc(Cl)cc1N1CCN(Cc2onc(-c3ccc(F)cc3)c2-c2nc(C(=O)NC(C)C)cs2)CC1` [Example 1610], the 50% inhibitory concentration (IC50) is above 1 µM.
`COc1cc(CN(C)Cc2onc(-c3ccc(F)cc3)c2-c2nc(C(=O)NC(C)C)cs2)cc(OC)c1OC` [Example 1611] gave an IC50 above 1 µM.
`CC(C)NC(=O)c1csc(-c2c(-c3ccc(F)cc3)noc2CN(CCc2ccccc2)Cc2ccccc2)n1` [Example 1612] had an IC50 above 1 µM.
To `CC(C)NC(=O)c1csc(-c2c(-c3ccc(F)cc3)noc2CN(C)C(Cc2ccccc2)c2ccccc2)n1` (stereo not drawn) [Example 1614] belongs above 1 µM; to `CC(C)NC(=O)c1csc(-c2c(-c3ccc(F)cc3)noc2CN2CCC(O)(c3ccc(Cl)cc3)CC2)n1` [Example 1615], above 1 µM; to `C#CCN(Cc1ccc(Cl)cc1Cl)Cc1onc(-c2ccc(F)cc2)c1-c1nc(C(=O)NC(C)C)cs1` [Example 1616], above 1 µM.
In turn, `CCN(Cc1onc(-c2ccc(F)cc2)c1-c1nc(C(=O)NC(C)C)cs1)C(Cc1ccccc1)c1ccco1` (stereo not drawn) [Example 1617] came in with a concentration for half-maximal inhibition (IC50) of at most 1 µM.
With `CC(C)NC(=O)c1csc(-c2c(-c3ccc(F)cc3)noc2CN2CCN(C(=O)OC(C)(C)C)C[C@H]2CO)n1` [Example 1618], the IC50 is above 1 µM.
Consider `CC(C)NC(=O)c1csc(-c2c(-c3ccc(F)cc3)noc2CN2CCN(c3ccc(C(C)(C)C)cc3)CC2)n1` [Example 1619], for which the IC50 is above 1 µM.
`CC(C)NC(=O)c1csc(-c2c(-c3ccc(F)cc3)noc2CN2CCN(Cc3ccc4c(c3)OCO4)CC2)n1` [Example 1620]: the 50% inhibitory concentration (IC50) is above 1 µM.
Turning to `COc1cc2c(cc1OC)CN(Cc1onc(-c3ccc(F)cc3)c1-c1nc(C(=O)NC(C)C)cs1)CC2` [Example 1621], the IC50 is above 1 µM.
Compound `CC(C)NC(=O)c1csc(-c2c(-c3ccc(F)cc3)noc2CN2CCN(c3ccc(C(F)(F)F)cc3)CC2)n1` [Example 1622] came in with an IC50 above 1 µM.
